Series [1] has as its system VEGF promoter (VEGF-luciferase reporter) in Hepatoma 3B (hep3B) cells. Nature of the series: VEGF-luciferase cell-based reporter assay, desferoxamine-induced, Hepatoma 3B (hep3B) cells. The note with it: 15 h, read-out: Secondary Assay VEGF-luciferase IC50. The source says:
This cell-based reporter assay involves the use of a luciferase reporter gene under the direct control of the VEGF promoter. Induction of HIF using desferoxamine leads to the transcription of luciferase through activation of the VEGF (Vascular Endothelial Growth Factor) promoter, which in turn leads to an increase in luciferase activity, which can be measured using most commercially available luciferase assay kits. Molecules that disrupt the HIF complex cause inhibition of HIF-dependent luciferase activation and lead to a reduction in luciferase activity. This assay allows the activity of the compounds to be assessed against the VEGF promoter, which is essential for VEGF production and subsequent angiogenesis.
Hepatoma 3B (hep3B) cells (ATCC Ref. No. HB-8064) were plated in 24-well plates at 2×10^4/well in 500 μL DMEM/10% FCS, and were transfected the following day using Fugene 6 (Roche Biochemicals®, Lewes, E. Sussex, UK). Transfection mixtures per well contained 6 μL 10% Fugene, 200 ng VEGF-luciferase reporter (rat VEGF promoter, NCBI GenBank, accession number U22373, Levy et al., 1995) and 2 ng TK-renilla (Promega®, Madison, Wis., USA) (for transfection efficiency control). Transfection was performed as recommended by manufacturer. Compounds were added the following day. After 1 hour incubation at 37° C., desferoxamine (Sigma®, Dorset, UK) was added at 100 μM to induce HIF activity. Duplicate wells without desferoxamine were run in parallel. Cells were harvested 15 hours later, and luciferase activity was measured using Dual Luciferase Assay System (Promega®, see also Technical Manual, Part #TM040, Instructions for Use of Products E1910 and E1960, revised May/1999).
For orientation: A reporter such as luciferase makes a cellular process visible.

Series [2] deals with VEGF. Nature of the series: VEGF-ELISA (Quantikine sandwich immunoassay of VEGF in cell supernatant). The series is classed as cell-based. Particulars: Homo sapiens, 17 h; read-out: Secondary Assay VEGF-ELISA IC50. The procedure:
This assay employs the quantitative sandwich enzyme immunoassay technique. A monoclonal antibody (R&D Systems®, Abingdon, Oxon, UK) specific for VEGF was pre-coated onto a microplate. To this was added a sample containing VEGF. After washing, a second anti-VEGF antibody coupled to horseradish peroxidase was added. […] Typically, cells were plated at a concentration of 2.5×10^4 cells/well, and incubated with either 100 μM desferroxamine or at 0.1% O2 for 17 hours at 37° C. 200 μL of supernatant were removed and the VEGF quantitated using the Quantikine® ELISA kit from R&D Systems® (catalog # DVEOO) exactly according to the manufacturer's instructions. The assay is calibrated each time using recombinant human VEGF.
(An ELISA detects its analyte on a solid surface through an enzyme-linked reagent.)

For series [3], the target named is T1, interaction between HIF-1α and p300 (His-HIF-1α / GST-p300) (Homo sapiens, UniProt Q09472+Q16665).
T1 construct: corresponding to the C-terminal 390 amino acids into vector pET28a; A plasmid containing the N-terminal 595 amino acids of human p300; made in house; host or cells: E. coli
T1 sequence (Q16665 437-826 limits assumed): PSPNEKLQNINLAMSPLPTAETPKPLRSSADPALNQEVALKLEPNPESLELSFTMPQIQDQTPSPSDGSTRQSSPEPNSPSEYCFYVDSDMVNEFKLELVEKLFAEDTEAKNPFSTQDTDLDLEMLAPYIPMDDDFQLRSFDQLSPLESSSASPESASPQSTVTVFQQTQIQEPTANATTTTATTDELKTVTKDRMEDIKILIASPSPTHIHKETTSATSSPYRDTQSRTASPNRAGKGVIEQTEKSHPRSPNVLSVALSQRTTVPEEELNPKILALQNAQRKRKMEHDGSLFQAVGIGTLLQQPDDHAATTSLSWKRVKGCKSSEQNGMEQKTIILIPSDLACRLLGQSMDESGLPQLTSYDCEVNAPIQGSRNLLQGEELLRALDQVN
T1 sequence (Q09472 1-595 limits assumed): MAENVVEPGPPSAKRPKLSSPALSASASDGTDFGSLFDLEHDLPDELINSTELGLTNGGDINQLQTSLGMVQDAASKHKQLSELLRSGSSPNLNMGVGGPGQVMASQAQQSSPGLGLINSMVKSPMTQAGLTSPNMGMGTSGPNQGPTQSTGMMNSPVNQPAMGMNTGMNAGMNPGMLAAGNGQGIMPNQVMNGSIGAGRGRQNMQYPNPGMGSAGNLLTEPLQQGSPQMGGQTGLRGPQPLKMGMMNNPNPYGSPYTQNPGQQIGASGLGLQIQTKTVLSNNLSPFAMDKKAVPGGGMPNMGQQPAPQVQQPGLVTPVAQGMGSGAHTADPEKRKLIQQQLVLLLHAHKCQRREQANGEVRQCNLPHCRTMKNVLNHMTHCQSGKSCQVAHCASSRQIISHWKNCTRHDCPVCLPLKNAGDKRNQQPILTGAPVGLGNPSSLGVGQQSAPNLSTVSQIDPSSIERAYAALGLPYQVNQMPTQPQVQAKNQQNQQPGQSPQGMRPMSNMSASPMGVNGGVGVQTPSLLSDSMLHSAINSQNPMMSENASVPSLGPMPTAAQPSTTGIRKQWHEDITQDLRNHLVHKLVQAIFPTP
As to the kind of experiment: Primary assay: fluorescence-based (DELFIA) screening assay for inhibition of the HIF-1α/p300 interaction. It is filed as binding. The procedure: Candidate compounds were assessed for their ability to inhibit the interaction between HIF-1α and p300 using a high throughput fluorescence-based screening assay (DELFIA) as follows.
A plasmid expressing His-HIF-1α fusion protein was constructed by PCR, by amplifying and subcloning a fragment of the human HIF-1α cDNA (NCBI GenBank, accession number AH006957) corresponding to the C-terminal 390 amino acids into vector pET28a (Novagen®, Madison, Wis., USA). A plasmid containing the N-terminal 595 amino acids of human p300 (NCBI GenBank, accession number U01877) inserted into vector pGEX2T (Pharmacia®, Little Chalfont, Bucks, UK) was used for the production of GST-p300 fusion protein. The recombinant proteins were produced in E. coli. His-HIF-1α was purified using Ni-NTA agarose beads, according to manufacture's method (Qiagen®, Crawley, West Sussex, UK). GST-p300 was purified using Glutathione-sepharose beads (Amersham Pharmacia®, Little Chalfont, Bucks, UK) according to manufacturer's instructions. A titration of every batch of p300 was carried out in order to determine the optimum dilution of the protein to obtain at least a 10:1 ratio signal to noise in the binding assay.
The assay was performed in 96-well Polysorb plates (Nalge Nunc International®, Rochester, N.Y., USA) as follows. Plates were coated with His-HIF-1α at 50 ng/well in […] and incubated overnight at 4° C. The plates were then washed 3 times with deionized water and blocked with 100 μL/well 3% BSA in PBS for 3 hours at 4° C. After washing 3 times as before, GST-p300 was added at the appropriate dilution (1:800 in this screening) in binding buffer (50 mM HEPES pH 7.5, 50 mM NaCl, 0.1% BSA, 0.5 mM DTT). The reaction was incubated at room temperature for 1 hour. Plates were washed 3 times and anti-GST Europium-conjugated antibody (from Wallac®, Turku, Finland) was added at 50 ng/well in […]. After 45 minutes incubation, plates were washed 3 times as before. Then, 100 μL/well enhancement solution (from Wallac®, Catalog No. 1244-105) was added and allowed to react for 15 minutes at room temperature. Plates were read on a Victor 2 plate reader (from Wallac®).

Where two headings read alike, the source gives them in different places.

On to `O=C1NC(=S)NC(=O)C1=Cc1ccc(Oc2ccccc2)cc1` [PX106021, 5-(4-Phenoxy-benzylidene)-2-thioxo-dihydro-pyrimidine-4,6-dione], for which the figures for the IC50 in series [1] and in series [2] were 100 µM and 80 µM, respectively.

Take `CCN(CC)c1ccc(C=C2C(=O)NC(=O)NC2=O)cc1` [P2083675]: the half-maximal inhibitory concentration (IC50) in series [3] came out at 35 µM; in series [1] it was 50 µM; in series [2], 75 µM.

On to `O=C1NC(=O)C(=Cc2ccc([N+](=O)[O-])s2)C(=O)N1` [PX074037], for which the half-inhibitory concentration (IC50) in series [3] was 100 µM; in series [1] it was 35 µM; in series [2], 30 µM.

Consider `O=C1NC(=S)NC(=O)C1=Cc1cc(Br)cs1` [PX089648, 5-(4-Bromo-thiophen-2-ylmethylene)-2-thioxo-dihydro-pyrimidine-4,6-dione], for which the melting point was 230 °C (dec.). The IC50 in series [3] was 45 µM. For the same molecule, the IC50 in series [1] was found to be 30 µM. The IC50 in series [2] is 32.5 µM.

As for `O=C1NC(=S)NC(=O)C1=Cc1ccc[nH]1` [PX089639, 5-(1H-pyrrol-2-ylmethylene)-2-thioxo-dihydro-pyrimidine-4,6-dione], the melting point is 280 °C (dec.). This molecule registered an IC50 in series [3] of 20 µM. Also, the half-inhibitory concentration (IC50) in series [1] was determined as 25 µM. In addition, in series [2], the 50% inhibitory concentration (IC50) stood at 50 µM.

Consider `O=C1NC(=S)NC(=O)C1=Cc1c[nH]c2ccccc12` [PX075276, 5-(1H-Indol-3-ylmethylene)-2-thioxo-dihydro-pyrimidine-4,6-dione], for which the IC50 was 30 µM in series [3], 10.8 µM in series [1] and 18.8 µM in series [2].

Regarding `Cc1cc(C)c(C=C2C(=O)NC(=S)NC2=O)[nH]1` [PX089624], the IC50 in series [3] was 45 µM; in series [1], 12.5 µM; in series [2] it was 6.2 µM.

With `CN(C)c1ccc(C=C2C(=O)NC(=S)NC2=O)cc1` [PX089631, 5-(4-dimethylamino-benzylidene)-2-thioxo-dihydro-pyrimidine-4,6-dione], the concentration for half-maximal inhibition (IC50) stood at 25 µM in series [3], 16.3 µM in series [1] and 27.5 µM in series [2].

As for `CN(CCC#N)c1ccc(C=C2C(=O)NC(=S)NC2=O)cc1` [PX089643], the values for the IC50 in series [3], in series [1] and in series [2] were 55 µM, 87.5 µM and 100 µM, respectively.

Turning to `CCN1C(=O)/C(=C/C=C/c2ccco2)C(=O)NC1=S` [PX106281], the values for the IC50 in series [3], in series [1] and in series [2] were 35 µM, 28 µM and 30 µM, respectively.

On to `O=C1NC(=S)NC(=O)C1=Cc1ccc([N+](=O)[O-])s1` [PX074038, 5-(5-Nitro-thiophen-2-ylmethylene)-2-thioxo-dihydro-pyrimidine-4,6-dione], for which the melting point was 285 °C (dec.). Half-maximal inhibition in series [3] (IC50) was put at 20 µM. In addition, the IC50 in series [1] came out at 50 µM.

With `O=C1NC(=S)NC(=O)C1=Cc1ccc(-c2cc(C(F)(F)F)cc(C(F)(F)F)c2)o1` [PX075367], the half-inhibitory concentration (IC50) in series [3] was found to be 45 µM; in series [1] it was 50 µM; in series [2], 75 µM.

Consider `O=C1NC(=S)NC(=O)C1=Cc1cccc2ccccc12` [PX089635, 5-(Naphthalen-1-ylmethylene)-2-thioxo-dihydro-pyrimidine-4,6-dione], for which the melting point is 280 °C (dec.). Further, half-maximal inhibition in series [3] (IC50) was put at 80 µM.

Consider `O=C1C(=Cc2ccc(Cl)cc2)C(=O)N(c2ccccc2)C(=S)N1c1ccccc1` [PX089645, 5-(4-Chloro-benzylidene)-1,3-diphenyl-2-thioxo-dihydro-pyrimidine-4,6-dione], for which the IC50 in series [3] amounted to 80 µM; in series [2], 200 µM.

As for `O=C1NC(=S)NC(=O)C1=Cc1cn(Cc2ccccc2)c2ccccc12` [PX106341], the IC50 was 49 µM in series [3], 57.5 µM in series [1] and 20 µM in series [2].

Turning to `Cc1cc(C)cc(-n2c(C)cc(C=C3C(=O)NC(=S)NC3=O)c2C)c1` [PX106155], the 50% inhibitory concentration (IC50) came to 10 µM in series [3], 27.5 µM in series [1] and 45 µM in series [2].

Turning to `Cc1cc(C=C2C(=O)NC(=S)NC2=O)c(C)n1-c1ccccc1` [PX106151], the IC50 worked out at 160 µM in series [3], 40 µM in series [1] and 75 µM in series [2].

For `Cc1cc2nc3c(=O)n(CC(=O)O)c(=O)nc-3n(C)c2cc1C` [PX088992], the half-inhibitory concentration (IC50) in series [3] (read-out: Primary Assay Inhibition IC50) came to 10 µM; in series [1], 20 µM.

For the molecule `O=C1NC(=S)NC(=O)C1=Cc1ccc(-c2cc(Cl)ccc2Cl)o1` [PX106326], the IC50 in series [3] turned out to be 40 µM; in series [1], 50 µM.

As to `CN(C)c1ccc(C=C2C(=O)N(c3ccccc3)C(=S)N(c3ccccc3)C2=O)cc1[N+](=O)[O-]` [PX089626], the IC50 was 40 µM in series [3] and 75 µM in series [1].

For `O=C1NC(=S)NC(=O)C1=Cc1ccco1` [PX083634, 5-(Furan-2-ylmethylene)-2-thioxo-dihydro-pyrimidine-4,6-dione], the figures for the concentration for half-maximal inhibition (IC50) in series [3] and in series [1] were 65 µM and 50 µM, respectively.

Usually IC50 stands for the point on the concentration scale where inhibition reaches its midpoint. In general, melting point refers to the temperature of the solid-liquid transition.

These data come from patent US20030229108A1, “Barbituric acid analogs as therapeutic agents” (priority 2000, published 2003).
